{
  "source": "PubChem BioAssay AID1259407",
  "about": "(Chemical Carcinogenesis Research Information System (CCRIS), 2018)",
  "tested_on": "CCRIS mutagenicity, Ames/micronucleus/aberration tests",
  "experiment": "CCRIS mutagenicity studies",
  "key": {"[1]": {"conditions": "Test System: AMES SALMONELLA TYPHIMURIUM, Strain/Indicator: TA97, Metabolic Activation: NONE, Method: PREINCUBATION"}, "[2]": {"conditions": "Test System: AMES SALMONELLA TYPHIMURIUM, Strain/Indicator: TA98, Metabolic Activation: NONE, Method: PREINCUBATION"}, "[3]": {"conditions": "Test System: AMES SALMONELLA TYPHIMURIUM, Strain/Indicator: TA100, Metabolic Activation: NONE, Method: PREINCUBATION"}, "[4]": {"conditions": "Test System: AMES SALMONELLA TYPHIMURIUM, Strain/Indicator: TA1535, Metabolic Activation: NONE, Method: PREINCUBATION"}, "[5]": {"conditions": "Test System: AMES SALMONELLA TYPHIMURIUM, Strain/Indicator: TA100, Metabolic Activation: NONE, Method: STANDARD PLATE"}},
  "note": "The source made the active and inactive calls. No rule for the calls is given here.",
  "data": [
    {"compound": "CCCCCCCC(=O)O", "values": [
      {"measurement": "mutagenic call", "setting": "Test System: AMES SALMONELLA TYPHIMURIUM, Strain/Indicator: TA97, Metabolic Activation: HAMSTER, LIVER, S-9, AROCLOR 1254 (10%), Method: PREINCUBATION", "value": "inactive; negative"},
      {"measurement": "mutagenic call", "setting": "Test System: AMES SALMONELLA TYPHIMURIUM, Strain/Indicator: TA97, Metabolic Activation: HAMSTER, LIVER, S-9, AROCLOR 1254 (30%), Method: PREINCUBATION", "value": "inactive; negative"},
      {"measurement": "mutagenic call", "setting": "[1]", "value": "inactive; negative"},
      {"measurement": "mutagenic call", "setting": "Test System: AMES SALMONELLA TYPHIMURIUM, Strain/Indicator: TA97, Metabolic Activation: RAT, LIVER, S-9, AROCLOR 1254 (10%), Method: PREINCUBATION", "value": "inactive; negative"},
      {"measurement": "mutagenic call", "setting": "Test System: AMES SALMONELLA TYPHIMURIUM, Strain/Indicator: TA97, Metabolic Activation: RAT, LIVER, S-9, AROCLOR 1254 (30%), Method: PREINCUBATION", "value": "inactive; negative"},
      {"measurement": "mutagenic call", "setting": "Test System: AMES SALMONELLA TYPHIMURIUM, Strain/Indicator: TA98, Metabolic Activation: HAMSTER, LIVER, S-9, AROCLOR 1254 (10%), Method: PREINCUBATION", "value": "inactive; negative"},
      {"measurement": "mutagenic call", "setting": "Test System: AMES SALMONELLA TYPHIMURIUM, Strain/Indicator: TA98, Metabolic Activation: HAMSTER, LIVER, S-9, AROCLOR 1254 (30%), Method: PREINCUBATION", "value": "inactive; negative"},
      {"measurement": "mutagenic call", "setting": "[2]", "value": "inactive; negative"},
      {"measurement": "mutagenic call", "setting": "Test System: AMES SALMONELLA TYPHIMURIUM, Strain/Indicator: TA98, Metabolic Activation: RAT, LIVER, S-9, AROCLOR 1254 (10%), Method: PREINCUBATION", "value": "inactive; negative"},
      {"measurement": "mutagenic call", "setting": "Test System: AMES SALMONELLA TYPHIMURIUM, Strain/Indicator: TA98, Metabolic Activation: RAT, LIVER, S-9, AROCLOR 1254 (30%), Method: PREINCUBATION", "value": "inactive; negative"},
      {"measurement": "mutagenic call", "setting": "Test System: AMES SALMONELLA TYPHIMURIUM, Strain/Indicator: TA100, Metabolic Activation: HAMSTER, LIVER, S-9, AROCLOR 1254 (10%), Method: PREINCUBATION", "value": "inactive; negative"},
      {"measurement": "mutagenic call", "setting": "Test System: AMES SALMONELLA TYPHIMURIUM, Strain/Indicator: TA100, Metabolic Activation: HAMSTER, LIVER, S-9, AROCLOR 1254 (30%), Method: PREINCUBATION", "value": "inactive; negative"},
      {"measurement": "mutagenic call", "setting": "[3]", "value": "inactive; negative"},
      {"measurement": "mutagenic call", "setting": "Test System: AMES SALMONELLA TYPHIMURIUM, Strain/Indicator: TA100, Metabolic Activation: RAT, LIVER, S-9, AROCLOR 1254 (10%), Method: PREINCUBATION", "value": "inactive; negative"},
      {"measurement": "mutagenic call", "setting": "Test System: AMES SALMONELLA TYPHIMURIUM, Strain/Indicator: TA100, Metabolic Activation: RAT, LIVER, S-9, AROCLOR 1254 (30%), Method: PREINCUBATION", "value": "inactive; negative"},
      {"measurement": "mutagenic call", "setting": "Test System: AMES SALMONELLA TYPHIMURIUM, Strain/Indicator: TA1535, Metabolic Activation: HAMSTER, LIVER, S-9, AROCLOR 1254 (10%), Method: PREINCUBATION", "value": "inactive; negative"},
      {"measurement": "mutagenic call", "setting": "Test System: AMES SALMONELLA TYPHIMURIUM, Strain/Indicator: TA1535, Metabolic Activation: HAMSTER, LIVER, S-9, AROCLOR 1254 (30%), Method: PREINCUBATION", "value": "inactive; negative"},
      {"measurement": "mutagenic call", "setting": "[4]", "value": "inactive; negative"},
      {"measurement": "mutagenic call", "setting": "Test System: AMES SALMONELLA TYPHIMURIUM, Strain/Indicator: TA1535, Metabolic Activation: RAT, LIVER, S-9, AROCLOR 1254 (10%), Method: PREINCUBATION", "value": "inactive; negative"},
      {"measurement": "mutagenic call", "setting": "Test System: AMES SALMONELLA TYPHIMURIUM, Strain/Indicator: TA1535, Metabolic Activation: RAT, LIVER, S-9, AROCLOR 1254 (30%), Method: PREINCUBATION", "value": "inactive; negative"},
      {"measurement": "mutagenic call", "setting": "Test System: AMES SALMONELLA TYPHIMURIUM, Strain/Indicator: TA1537, Metabolic Activation: HAMSTER, LIVER, S-9, AROCLOR 1254 (10%), Method: PREINCUBATION", "value": "inactive; negative"},
      {"measurement": "mutagenic call", "setting": "Test System: AMES SALMONELLA TYPHIMURIUM, Strain/Indicator: TA1537, Metabolic Activation: HAMSTER, LIVER, S-9, AROCLOR 1254 (30%), Method: PREINCUBATION", "value": "inactive; negative"},
      {"measurement": "mutagenic call", "setting": "Test System: AMES SALMONELLA TYPHIMURIUM, Strain/Indicator: TA1537, Metabolic Activation: NONE, Method: PREINCUBATION", "value": "inactive; negative"},
      {"measurement": "mutagenic call", "setting": "Test System: AMES SALMONELLA TYPHIMURIUM, Strain/Indicator: TA1537, Metabolic Activation: RAT, LIVER, S-9, AROCLOR 1254 (10%), Method: PREINCUBATION", "value": "inactive; negative"},
      {"measurement": "mutagenic call", "setting": "Test System: AMES SALMONELLA TYPHIMURIUM, Strain/Indicator: TA1537, Metabolic Activation: RAT, LIVER, S-9, AROCLOR 1254 (30%), Method: PREINCUBATION", "value": "inactive; negative"}
    ]},
    {"compound": "Nc1cccc(S(=O)(=O)O)c1", "values": [
      {"measurement": "mutagenic call", "setting": "Test System: AMES SALMONELLA TYPHIMURIUM, Strain/Indicator: TA97, Metabolic Activation: HAMSTER, LIVER, S-9, AROCLOR 1254 (10 OR 30%), Method: PREINCUBATION", "value": "inactive; negative"},
      {"measurement": "mutagenic call", "setting": "[1]", "value": "inactive; negative"},
      {"measurement": "mutagenic call", "setting": "Test System: AMES SALMONELLA TYPHIMURIUM, Strain/Indicator: TA97, Metabolic Activation: RAT, LIVER, S-9, AROCLOR 1254 (10 OR 30%), Method: PREINCUBATION", "value": "inactive; negative"},
      {"measurement": "mutagenic call", "setting": "Test System: AMES SALMONELLA TYPHIMURIUM, Strain/Indicator: TA98, Metabolic Activation: HAMSTER, LIVER, S-9, AROCLOR 1254 (10 OR 30%), Method: PREINCUBATION", "value": "inactive; negative"},
      {"measurement": "mutagenic call", "setting": "[2]", "value": "inactive; negative"},
      {"measurement": "mutagenic call", "setting": "Test System: AMES SALMONELLA TYPHIMURIUM, Strain/Indicator: TA98, Metabolic Activation: RAT, LIVER, S-9, AROCLOR 1254 (10 OR 30%), Method: PREINCUBATION", "value": "inactive; negative"},
      {"measurement": "mutagenic call", "setting": "Test System: AMES SALMONELLA TYPHIMURIUM, Strain/Indicator: TA98, Metabolic Activation: S-9, Method: PREINCUBATION", "value": "inactive; negative"},
      {"measurement": "mutagenic call", "setting": "Test System: AMES SALMONELLA TYPHIMURIUM, Strain/Indicator: TA100, Metabolic Activation: HAMSTER, LIVER, S-9, AROCLOR 1254 (10 OR 30%), Method: PREINCUBATION", "value": "inactive; negative"},
      {"measurement": "mutagenic call", "setting": "[3]", "value": "inactive; negative"},
      {"measurement": "mutagenic call", "setting": "Test System: AMES SALMONELLA TYPHIMURIUM, Strain/Indicator: TA100, Metabolic Activation: RAT, LIVER, S-9, AROCLOR 1254 (10 OR 30%), Method: PREINCUBATION", "value": "inactive; negative"},
      {"measurement": "mutagenic call", "setting": "Test System: AMES SALMONELLA TYPHIMURIUM, Strain/Indicator: TA100, Metabolic Activation: S-9, Method: PREINCUBATION", "value": "inactive; negative"},
      {"measurement": "mutagenic call", "setting": "Test System: AMES SALMONELLA TYPHIMURIUM, Strain/Indicator: TA1535, Metabolic Activation: HAMSTER, LIVER, S-9, AROCLOR 1254 (10 OR 30%), Method: PREINCUBATION", "value": "inactive; negative"},
      {"measurement": "mutagenic call", "setting": "[4]", "value": "inactive; negative"},
      {"measurement": "mutagenic call", "setting": "Test System: AMES SALMONELLA TYPHIMURIUM, Strain/Indicator: TA1535, Metabolic Activation: RAT, LIVER, S-9, AROCLOR 1254 (10 OR 30%), Method: PREINCUBATION", "value": "inactive; negative"},
      {"measurement": "mutagenic call", "setting": "Test System: UDS RODENT HEPATOCYTES, Strain/Indicator: THY INCORP (NON-S-PHASE), Metabolic Activation: NONE, Method: AUTORADIOGRAPHY", "value": "inactive; negative"}
    ]},
    {"compound": "CCCCCC(C)=O", "values": [
      {"measurement": "mutagenic call", "setting": "Test System: CHINESE HAMSTER V-79, Strain/Indicator: V-79 (HPRT)/6-THIOGUANINE, Metabolic Activation: NONE, Method: STANDARD PLATE", "value": "inactive; negative"},
      {"measurement": "mutagenic call", "setting": "Test System: CHINESE HAMSTER V-79, Strain/Indicator: V-79 (HPRT)/6-THIOGUANINE, Metabolic Activation: RAT LIVER S-9, Method: STANDARD PLATE", "value": "inactive; negative"}
    ]},
    {"compound": "ClCc1c2ccccc2cc2c1ccc1ccccc12", "values": [
      {"measurement": "mutagenic call", "setting": "[5]", "value": "active; positive"}
    ]},
    {"compound": "O=c1[nH]c(=O)n([C@H]2C[C@H](O)[C@@H](CO)O2)cc1COO", "values": [
      {"measurement": "mutagenic call", "setting": "[5]", "value": "active; positive"},
      {"measurement": "mutagenic call", "setting": "Test System: AMES SALMONELLA TYPHIMURIUM, Strain/Indicator: TA102, Metabolic Activation: NONE, Method: STANDARD PLATE", "value": "active; positive"}
    ]}
  ]
}
